# In ChEMBL document CHEMBL4680094, “Insights of a Lead Optimization Study and Biological Evaluation of Novel 4-Hydroxytamoxifen Analogs as Estrogen-Related Receptor γ (ERRγ) Inverse Agonists” (J Med Chem, 2016):
# Activity calls are given as the source filed them. No cut-off for these calls is given here.
# Experiments:
# [1] = molecular target: T1, Steroid hormone receptor ERR1 (Homo sapiens, UniProt P11474); assay: Binding affinity to GST-tagged ERRalpha LBD (unknown origin) using fluorescein PGC1alpha as coactivator incubated for 1 hr by LanthaScreen TR-FRET co-regulator assay
# T1 sequence (P11474 whole entry): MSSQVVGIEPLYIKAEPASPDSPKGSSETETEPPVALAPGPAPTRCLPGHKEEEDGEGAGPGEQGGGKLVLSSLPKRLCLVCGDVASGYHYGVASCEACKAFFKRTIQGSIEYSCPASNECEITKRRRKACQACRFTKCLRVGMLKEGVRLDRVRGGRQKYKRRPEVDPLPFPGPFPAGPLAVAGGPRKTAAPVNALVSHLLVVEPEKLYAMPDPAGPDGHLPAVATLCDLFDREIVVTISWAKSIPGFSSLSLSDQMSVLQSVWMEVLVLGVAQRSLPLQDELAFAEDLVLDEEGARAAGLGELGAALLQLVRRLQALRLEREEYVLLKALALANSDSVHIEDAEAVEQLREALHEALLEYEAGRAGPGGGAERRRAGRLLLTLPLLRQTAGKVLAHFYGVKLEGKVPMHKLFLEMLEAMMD
# [2] = molecular target: T2, Steroid hormone receptor ERR2 (Homo sapiens, UniProt O95718); assay: Binding affinity to GST-tagged ERRbeta LBD (unknown origin) using fluorescein PGC1alpha as coactivator incubated for 1 hr by LanthaScreen TR-FRET co-regulator assay
# T2 sequence (O95718 whole entry): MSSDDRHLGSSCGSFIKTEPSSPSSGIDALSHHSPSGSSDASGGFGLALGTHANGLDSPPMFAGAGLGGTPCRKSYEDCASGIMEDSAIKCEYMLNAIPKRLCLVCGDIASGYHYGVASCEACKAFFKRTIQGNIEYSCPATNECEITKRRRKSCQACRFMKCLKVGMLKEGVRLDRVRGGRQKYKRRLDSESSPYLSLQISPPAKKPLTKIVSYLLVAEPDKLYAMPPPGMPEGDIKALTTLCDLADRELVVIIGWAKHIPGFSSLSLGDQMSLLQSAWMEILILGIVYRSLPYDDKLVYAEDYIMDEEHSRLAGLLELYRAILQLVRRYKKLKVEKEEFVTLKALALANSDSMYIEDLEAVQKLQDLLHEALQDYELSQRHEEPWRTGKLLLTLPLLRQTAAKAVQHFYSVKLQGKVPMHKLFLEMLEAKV
# Estrogen receptor = molecular target: T3, Estrogen receptor (Homo sapiens, UniProt P03372); assay: Binding affinity to GST-tagged ERalpha LBD (unknown origin) using fluorescein PGC1alpha as coactivator incubated for 1 hr by LanthaScreen TR-FRET co-regulator assay
# T3 sequence (P03372 whole entry): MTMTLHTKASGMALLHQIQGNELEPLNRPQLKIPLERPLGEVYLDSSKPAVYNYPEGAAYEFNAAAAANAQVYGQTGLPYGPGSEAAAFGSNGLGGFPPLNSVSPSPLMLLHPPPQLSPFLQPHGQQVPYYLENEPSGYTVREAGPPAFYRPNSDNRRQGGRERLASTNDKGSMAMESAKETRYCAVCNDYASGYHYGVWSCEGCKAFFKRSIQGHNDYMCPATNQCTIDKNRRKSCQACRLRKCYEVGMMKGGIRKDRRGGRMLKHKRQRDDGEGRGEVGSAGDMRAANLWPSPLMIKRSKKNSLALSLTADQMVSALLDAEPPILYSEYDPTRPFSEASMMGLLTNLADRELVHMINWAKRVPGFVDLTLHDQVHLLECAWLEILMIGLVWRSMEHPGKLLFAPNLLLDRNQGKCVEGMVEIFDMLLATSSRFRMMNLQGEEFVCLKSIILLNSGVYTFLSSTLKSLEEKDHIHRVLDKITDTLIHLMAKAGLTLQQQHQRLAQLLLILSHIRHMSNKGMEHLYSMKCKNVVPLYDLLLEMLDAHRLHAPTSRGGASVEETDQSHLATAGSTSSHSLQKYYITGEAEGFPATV
# CYP1A2 = molecular target: T4, CYP1A2 (Homo sapiens, UniProt P05177); assay: Inhibition of CYP1A2 in human liver microsomes assessed as reduction in phenacetin O-deethylase activity at 10 uM preincubated for 5 mins followed by addition of NADPH-regenerating system and measured after 15 mins by LC-MS/MS analysis relative to control; assay type: ADME; details: probe phenacetin (O-deethylase activity), time 20 min
# T4 sequence (P05177 whole entry): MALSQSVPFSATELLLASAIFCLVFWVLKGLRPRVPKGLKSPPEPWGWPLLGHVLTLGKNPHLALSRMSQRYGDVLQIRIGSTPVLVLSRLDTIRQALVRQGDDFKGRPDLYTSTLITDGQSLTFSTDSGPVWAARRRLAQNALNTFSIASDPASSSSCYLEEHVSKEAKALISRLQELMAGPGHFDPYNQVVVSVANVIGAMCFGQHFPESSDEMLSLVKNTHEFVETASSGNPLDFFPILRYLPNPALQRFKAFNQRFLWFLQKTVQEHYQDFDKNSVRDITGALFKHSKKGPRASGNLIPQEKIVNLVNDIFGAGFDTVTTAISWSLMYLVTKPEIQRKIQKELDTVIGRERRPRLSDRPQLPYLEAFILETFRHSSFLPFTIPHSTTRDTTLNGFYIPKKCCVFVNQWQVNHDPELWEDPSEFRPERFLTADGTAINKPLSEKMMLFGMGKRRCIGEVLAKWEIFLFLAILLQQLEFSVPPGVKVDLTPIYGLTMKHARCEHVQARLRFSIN
# CYP2C9 = CYP2C9 (Homo sapiens, UniProt P11712); assay: Inhibition of CYP2C9 in human liver microsomes assessed as reduction in tolbutamide 4-hydroxylase activity at 10 uM preincubated for 5 mins followed by addition of NADPH-regenerating system and measured after 15 mins by LC-MS/MS analysis relative to control; assay type: ADME; details: probe tolbutamide (4-hydroxylase activity), time 20 min
# CYP2C19 = CYP2C19 (Homo sapiens, UniProt P33261); assay: Inhibition of CYP2C19 in human liver microsomes assessed as reduction in S-mephenytoin 4-hydroxylase activity at 10 uM preincubated for 5 mins followed by addition of NADPH-regenerating system and measured after 15 mins by LC-MS/MS analysis relative to control; assay type: ADME; details: probe S-mephenytoin (4-hydroxylase activity), time 20 min
# CYP2D6 = CYP2D6 (Homo sapiens, UniProt P10635); assay: Inhibition of CYP2D6 in human liver microsomes assessed as reduction in dextromethorphan O-demethylase activity at 10 uM preincubated for 5 mins followed by addition of NADPH-regenerating system and measured after 15 mins by LC-MS/MS analysis relative to control; assay type: ADME; details: probe dextromethorphan (O-demethylase activity), time 20 min
# CYP3A4 = CYP3A4 (Homo sapiens, UniProt P08684); assay: Inhibition of CYP3A4 in human liver microsomes assessed as reduction in midazolam 1-hydroxylase activity at 10 uM preincubated for 5 mins followed by addition of NADPH-regenerating system and measured after 15 mins by LC-MS/MS analysis relative to control; assay type: ADME; details: probe midazolam (1-hydroxylase activity), time 20 min
# [3] = Metabolic stability in human liver microsome assessed as parent compound remaining at 1 uM incubated for 30 mins in presence of NADPH generating system by LC-MS/MS analysis; assay type: ADME; details: liver microsomes, read-out: Stabilty
# [4] = Metabolic stability in rat liver microsome assessed as parent compound remaining at 1 uM incubated for 30 mins in presence of NADPH generating system by LC-MS/MS analysis; assay type: ADME; details: liver microsomes, read-out: Stabilty
# [5] = Effective permeability of compound at 10 uM in PBS buffer at pH 7.4 after 5 hrs by LC-MS/MS analysis based PAMPA method; assay type: ADME; details: read-out: Peff
# [6] = molecular target: Voltage-gated inwardly rectifying potassium channel KCNH2 (Homo sapiens, UniProt Q12809); assay: (§1) Inhibition of human ERG measured after 4 hrs by fluorescence polarization assay
# [7] = molecular target: T5, Estrogen-related receptor gamma (Homo sapiens, UniProt P62508)
# T5 sequence (P62508 whole entry): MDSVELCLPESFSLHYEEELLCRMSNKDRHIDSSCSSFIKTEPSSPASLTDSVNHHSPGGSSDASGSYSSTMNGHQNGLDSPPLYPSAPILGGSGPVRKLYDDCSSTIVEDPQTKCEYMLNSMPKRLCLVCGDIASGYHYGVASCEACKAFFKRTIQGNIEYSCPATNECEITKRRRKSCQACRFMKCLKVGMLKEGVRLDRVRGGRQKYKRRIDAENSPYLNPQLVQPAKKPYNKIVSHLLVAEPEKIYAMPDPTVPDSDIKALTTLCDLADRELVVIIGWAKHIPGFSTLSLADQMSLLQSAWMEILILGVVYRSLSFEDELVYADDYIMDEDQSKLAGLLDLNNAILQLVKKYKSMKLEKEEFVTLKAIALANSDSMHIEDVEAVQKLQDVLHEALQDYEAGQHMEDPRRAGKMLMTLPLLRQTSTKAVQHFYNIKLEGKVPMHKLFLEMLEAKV
# CAL-62 [8] = assay: Anticlonogenic activity against human CAL-62 cells assessed as colony forming units level in absence of [131I] at 20 uM incubated for 24 hrs by crystal violet staining based assay; assay type: ADME, cell-based; details: cal-62, 24 h
# CAL-62 [9] = assay: Potentiation of radioiodine therapy-mediated cytotoxicity against human CAL-62 cells assessed as colony forming units level in presence of [131I] at 20 uM preincubated for 24 hrs followed by [131I] addition and measured after 6 hrs by crystal violet staining based assay (reference value: 97.5 +/- 2%); assay type: functional; details: time 30 hrs
# [10] = Clearance in Sprague-Dawley rat at 10 mg/kg, po or 1 mg/kg, iv measured upto 8 hrs by LC-MS/MS analysis; assay type: ADME, organism-based; details: in vivo
# [11] = Volume of distribution at steady state in Sprague-Dawley rat at 10 mg/kg, po or 1 mg/kg, iv measured upto 8 hrs by LC-MS/MS analysis; assay type: ADME, organism-based; details: in vivo, read-out: Vdss
# [12] = Half-life in Sprague-Dawley rat at 10 mg/kg, po or 1 mg/kg, iv measured upto 8 hrs by LC-MS/MS analysis; assay type: ADME, organism-based; details: in vivo
# [13] = Oral bioavailability in Sprague-Dawley rat at 10 mg/kg, administered via gavage measured upto 8 hrs by LC-MS/MS analysis; assay type: ADME, organism-based; details: in vivo
# CAL-62 [14] = assay: Antiproliferative activity against human CAL-62 cells at 20 uM assessed as reduction in cell proliferation; assay type: functional, cell-based
# CAL-62 [15] = assay: Antiproliferative activity against human CAL-62 cells at 10 uM assessed as reduction in cell proliferation; assay type: functional, cell-based
# hERG (KCNH2) = hERG (KCNH2) (Homo sapiens, UniProt Q12809); assay: as §1; details: human
# hERG (KCNH2), sequence (Q12809 whole entry): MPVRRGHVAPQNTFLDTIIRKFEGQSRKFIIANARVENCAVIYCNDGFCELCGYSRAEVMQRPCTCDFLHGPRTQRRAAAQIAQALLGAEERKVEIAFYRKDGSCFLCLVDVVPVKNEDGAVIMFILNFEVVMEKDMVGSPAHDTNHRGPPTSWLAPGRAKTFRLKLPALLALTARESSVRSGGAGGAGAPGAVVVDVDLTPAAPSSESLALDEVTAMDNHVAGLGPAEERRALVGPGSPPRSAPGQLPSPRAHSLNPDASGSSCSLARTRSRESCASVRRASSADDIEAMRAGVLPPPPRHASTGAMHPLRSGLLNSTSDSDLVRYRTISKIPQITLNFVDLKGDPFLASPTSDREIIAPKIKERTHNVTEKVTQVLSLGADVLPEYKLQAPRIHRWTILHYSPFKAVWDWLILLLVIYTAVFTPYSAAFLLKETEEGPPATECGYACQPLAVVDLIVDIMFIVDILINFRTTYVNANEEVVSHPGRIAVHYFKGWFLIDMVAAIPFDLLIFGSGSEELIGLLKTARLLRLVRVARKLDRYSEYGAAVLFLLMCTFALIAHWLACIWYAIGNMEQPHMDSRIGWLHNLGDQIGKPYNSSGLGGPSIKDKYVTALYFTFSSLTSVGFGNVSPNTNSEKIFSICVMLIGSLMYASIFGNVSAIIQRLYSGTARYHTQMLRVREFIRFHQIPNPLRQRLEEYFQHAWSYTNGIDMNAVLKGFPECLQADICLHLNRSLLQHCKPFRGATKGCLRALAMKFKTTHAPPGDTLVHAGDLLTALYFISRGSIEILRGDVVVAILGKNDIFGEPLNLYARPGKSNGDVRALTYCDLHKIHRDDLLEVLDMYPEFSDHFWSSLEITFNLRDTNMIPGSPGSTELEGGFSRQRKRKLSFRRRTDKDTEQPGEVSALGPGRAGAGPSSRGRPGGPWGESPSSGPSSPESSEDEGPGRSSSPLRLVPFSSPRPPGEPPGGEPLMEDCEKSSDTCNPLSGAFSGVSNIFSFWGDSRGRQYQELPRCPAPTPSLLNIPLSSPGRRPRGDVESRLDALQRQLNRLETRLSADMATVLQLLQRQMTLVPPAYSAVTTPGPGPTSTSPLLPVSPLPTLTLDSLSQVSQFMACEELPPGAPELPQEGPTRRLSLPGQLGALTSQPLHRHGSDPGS
# CYP2C19, sequence (P33261 whole entry): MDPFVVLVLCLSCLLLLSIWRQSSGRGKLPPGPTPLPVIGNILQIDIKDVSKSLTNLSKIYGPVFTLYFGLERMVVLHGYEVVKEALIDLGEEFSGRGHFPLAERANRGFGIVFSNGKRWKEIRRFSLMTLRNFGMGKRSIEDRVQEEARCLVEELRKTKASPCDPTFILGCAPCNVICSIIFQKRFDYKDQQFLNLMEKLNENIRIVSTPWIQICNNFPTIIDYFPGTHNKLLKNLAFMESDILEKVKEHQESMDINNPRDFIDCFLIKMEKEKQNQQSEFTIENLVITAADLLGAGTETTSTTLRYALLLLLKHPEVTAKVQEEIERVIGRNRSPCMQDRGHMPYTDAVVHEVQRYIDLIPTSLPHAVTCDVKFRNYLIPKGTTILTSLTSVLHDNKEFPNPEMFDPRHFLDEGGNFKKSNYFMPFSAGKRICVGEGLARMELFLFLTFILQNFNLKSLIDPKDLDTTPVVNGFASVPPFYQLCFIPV
# CYP3A4, sequence (P08684 whole entry): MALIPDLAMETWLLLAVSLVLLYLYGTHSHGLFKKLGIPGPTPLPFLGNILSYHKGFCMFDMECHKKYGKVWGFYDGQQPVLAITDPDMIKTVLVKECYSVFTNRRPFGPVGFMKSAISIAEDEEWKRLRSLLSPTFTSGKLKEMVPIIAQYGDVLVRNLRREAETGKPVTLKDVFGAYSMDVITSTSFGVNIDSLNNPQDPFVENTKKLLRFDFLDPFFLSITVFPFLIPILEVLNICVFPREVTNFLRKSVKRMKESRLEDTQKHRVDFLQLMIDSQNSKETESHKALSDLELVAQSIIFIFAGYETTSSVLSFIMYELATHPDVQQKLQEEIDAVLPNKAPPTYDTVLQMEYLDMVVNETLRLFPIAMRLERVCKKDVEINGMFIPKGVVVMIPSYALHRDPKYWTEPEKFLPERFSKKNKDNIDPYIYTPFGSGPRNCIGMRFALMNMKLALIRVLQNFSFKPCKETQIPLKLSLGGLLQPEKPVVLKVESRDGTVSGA
# CYP2C9, sequence (P11712 whole entry): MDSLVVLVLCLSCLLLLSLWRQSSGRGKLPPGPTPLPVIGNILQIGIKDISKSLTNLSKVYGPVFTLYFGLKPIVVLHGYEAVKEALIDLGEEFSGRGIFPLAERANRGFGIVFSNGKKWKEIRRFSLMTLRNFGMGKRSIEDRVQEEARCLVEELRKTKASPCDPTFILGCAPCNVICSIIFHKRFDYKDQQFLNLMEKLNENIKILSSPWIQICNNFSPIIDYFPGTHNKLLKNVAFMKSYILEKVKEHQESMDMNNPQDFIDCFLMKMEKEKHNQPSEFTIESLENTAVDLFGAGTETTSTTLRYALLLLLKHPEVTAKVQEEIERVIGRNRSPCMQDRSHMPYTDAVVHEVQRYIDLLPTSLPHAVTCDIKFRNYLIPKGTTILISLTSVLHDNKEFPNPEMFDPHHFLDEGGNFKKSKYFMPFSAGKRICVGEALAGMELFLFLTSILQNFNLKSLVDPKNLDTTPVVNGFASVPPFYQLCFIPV
# CYP2D6, sequence (P10635 whole entry): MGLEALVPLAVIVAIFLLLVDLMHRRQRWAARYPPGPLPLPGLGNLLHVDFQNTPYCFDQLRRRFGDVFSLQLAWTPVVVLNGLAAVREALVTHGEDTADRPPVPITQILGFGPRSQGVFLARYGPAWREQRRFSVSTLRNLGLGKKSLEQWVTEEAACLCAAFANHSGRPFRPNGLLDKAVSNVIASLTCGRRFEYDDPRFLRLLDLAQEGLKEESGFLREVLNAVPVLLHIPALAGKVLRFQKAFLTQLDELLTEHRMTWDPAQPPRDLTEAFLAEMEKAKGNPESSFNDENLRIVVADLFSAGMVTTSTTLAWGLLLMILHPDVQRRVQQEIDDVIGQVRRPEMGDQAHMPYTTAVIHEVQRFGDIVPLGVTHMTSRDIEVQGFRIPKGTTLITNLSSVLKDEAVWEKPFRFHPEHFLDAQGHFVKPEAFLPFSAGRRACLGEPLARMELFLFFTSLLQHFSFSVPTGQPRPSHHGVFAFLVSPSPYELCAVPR
# Voltage-gated inwardly rectifying potassium channel KCNH2, sequence (Q12809 whole entry): as the sequence (Q12809 whole entry) above
Compound,IC50 [1] [µM],IC50 [2] [µM],IC50 (Estrogen receptor) [µM],"inhibition at 0.25 h, 10 µM (CYP1A2) [%]","inhibition at 0.25 h, 10 µM (CYP2C9) [%]","inhibition at 0.25 h, 10 µM (CYP2C19) [%]","inhibition at 0.25 h, 10 µM (CYP2D6) [%]","inhibition at 0.25 h, 10 µM (CYP3A4) [%]","remaining at 0.5 h, 1 µM [3] [%]","remaining at 0.5 h, 1 µM [4] [%]","Papp at 5 h, 10 µM [5] [×10⁻⁶ cm/s]",IC50 [6] [µM],IC50 [7] [µM],clearance [10] [mL/min/kg],other results
CN1CCCC1CCOc1ccc(/C(=C(/CCCO)c2ccccc2)c2ccc(Br)cc2)cc1.Cl (stereo unspecified),5.14,8.88,2.97,0,3,10.6,0,9.8,67.3,59.9,0.21,1.7,0.296,,
CN1CCC[C@H]1COc1ccc(/C(=C(/CCCO)c2ccccc2)c2ccc(O)cc2)cc1.Cl,> 10,3.99,1.06,0,37.2,16.8,9.3,24.6,24.8,30.3,2.11,,,,Activity (CAL-62 [8]): 93%; Activity (CAL-62 [9]): 67.4%
CN1CCCC1CCOc1ccc(/C(=C(/CCCO)c2ccccc2)c2ccc(O)cc2)cc1.Cl (stereo unspecified),> 10,6.01,,2.1,24.6,18.2,18.3,16.3,37.3,22.5,0.01,,0.02,,
CN1CCC[C@H]1COc1ccc(/C(=C(/CCCO)c2ccccc2)c2ccc(Br)cc2)cc1.Cl,,,,9.6,37.3,30.5,35.6,55,61.2,66.2,0.93,4.7,,74.4,Vd [11]: 16.1 L/kg; half-life [12]: 3.4 h; bioavailability [13]: 38.2%; Activity (CAL-62 [14]): Active; Activity (CAL-62 [15]): inactive
CN(C)CCOc1ccc(/C(=C(/CCCO)c2ccccc2)c2ccc(O)cc2)cc1,,,,16.4,27.1,21.8,17.7,17,,,0.23,,,45.6,
CN1CCC[C@@H]1COc1ccc(/C(=C(/CCCO)c2ccccc2)c2ccc(O)cc2)cc1.Cl,> 10,> 10,3.76,1.9,13.3,17.4,6.4,20.6,29,27.7,0.7,,,,IC50 at 4 h (hERG (KCNH2)): > 30 µM
